Experimental findings from patent US20100137368A1, “PYRIDINE DERIVATIVES AS FAST DI[…] 2 RECEPTOR ANTAGONISTS” (JANSSEN PHARMACEUTICA N.V., priority 2007, published 2010) are described below.

Where a name gives a salt, the structure may show the parent alone.

`N#Cc1ccc(NC2CCN(Cc3cccc(C(F)(F)F)c3)CC2)nc1`: the melting point (usually the temperature of the solid-liquid transition) is 111.6 °C.
The figure for `N#Cc1ccc(NC2CCN(Cc3cc(F)cc(C(F)(F)F)c3)CC2)nc1` is 198.8 °C; for `N#Cc1ccc(NC2CCN(Cc3cc(F)cc(F)c3)CC2)nc1` it is 102.6 °C.
Under `N#Cc1ccc(NC2CCN(Cc3cc(F)c(F)c(F)c3)CC2)nc1` stands 129.5 °C; under `N#Cc1cccc(NC2CCN(Cc3cc(F)cc(C(F)(F)F)c3)CC2)n1`, 115.2 °C.
As to `Fc1ccc(CN2CCC(Nc3ccc(C(F)(F)F)cn3)CC2)cc1F` (as salt: hydrochloric acid salt), the melting point is 268.7 °C.
